Results reported in patent publication US11912650B2, “Bakuchiol derivatives, pharmaceutically acceptable salts thereof, and preparation method and use of the same” (priority 2020, dated 2024).
In brackets after ≈: the same amount, converted by molar mass. Where two headings read alike, the source gives them in different places.

What was measured:
MRSA NCTC10442 = test: Antibacterial activity assay (broth dilution MIC); type: cell-based, methicillin-resistant Staphylococcus aureus; details: Staphylococcus aureus, 37° C., 24 h, compounds 38, 44-45, 58-61, 63-64 with 0.05% Tween 80
Method: (§1) Antibacterial activity assay. The antibacterial activities of all the compounds were determined according to a broth dilution method specified in Clinical and Laboratory Standards Institute (CLSI) guidelines. Bacterial cells were inoculated on a Mueller-Hinton agar (MHA) plate for overnight culture, and the concentration of the bacterial cells was adjusted to about 1×10^6 colony-forming units (CFU)/mL with phosphate buffered saline (PBS). First, a 1000 μg/mL stock solution (a final concentration of dimethyl sulfoxide (DMSO) was ≤2%) was prepared by dissolving a sample in DMSO/H2O. Then, the stock solution was diluted with Mueller-Hinton Broth (MHB) to an initial concentration of 100 μg/mL, and the sample solution (100 μL) was subjected to two-fold gradient dilution with MHB in a 96-well plate, to obtain 100 μg/mL to 0.78 μg/mL serial dilutions. Then, a bacterial suspension (100 μL) was added to each well of the 96-well plate and mixed with the test sample solution (100 μL). Among them, test systems for compounds 38, 44-45, 58-61 and 63-64 contained 0.05% of Tween 80. Finally, the 96-well plate was incubated at 37° C. for 24 hours. Absorbances at 600 nm at 0 and 24 h were measured. An minimum inhibitory concentration (MIC) value was defined as the lowest concentration where no visible bacterial growth occurred. All experiments were carried out in at least two duplicates, and biological repeatability could be achieved.

MRSA N315 = test: Antibacterial activity assay (broth dilution MIC); type: cell-based, methicillin-resistant Staphylococcus aureus; details: Staphylococcus aureus, 37° C., 24 h, compounds 38, 44-45, 58-61, 63-64 with 0.05% Tween 80
Method: as §1

S. aureus ATCC29213 = test: Antibacterial activity assay (broth dilution MIC); type: cell-based; details: Staphylococcus aureus, 37° C., 24 h, compounds 38, 44-45, 58-61, 63-64 with 0.05% Tween 80
Method: as §1

E. coli ATCC25922 = test: Antibacterial activity assay (broth dilution MIC); type: cell-based; details: Escherichia coli, 37° C., 24 h, compounds 38, 44-45, 58-61, 63-64 with 0.05% Tween 80
Method: as §1

Gram-positive bacteria = test: Antibacterial activity against Gram-positive bacteria (MIC summary); type: cell-based; details: 24 h, read-out: minimum inhibitory concentration (MIC) against Gram-positive bacteria
Method: as §1

Gram-negative bacteria = test: Antibacterial activity against Gram-negative bacteria (MIC summary); type: cell-based; details: 24 h; summary of tables 1 and 2
Method: as §1

Row | Compound | MIC (MRSA NCTC10442) | MIC (MRSA N315) | MIC (S. aureus ATCC29213) | MIC (E. coli ATCC25922) | MIC (Gram-positive bacteria; summary of tables 1 and 2) | MIC (Gram-positive bacteria) | MIC (Gram-negative bacteria)
1 | C=C[C@@](C)(/C=C/c1ccc(OCCCCNCCCCCC)cc1)CCC=C(C)C [Compound 16] | 1.56 µg/mL (≈ 3.79 µM) | 0.78 µg/mL (≈ 1.89 µM) | 1.56 µg/mL (≈ 3.79 µM) | 100 µg/mL (≈ 243 µM) | 0.39 to 3.12 µg/mL (≈ 0.947 to 7.59 µM) |  | 
2 | C=C[C@@](C)(/C=C/c1ccc(OCCCCCCCCN(CC)CC)cc1)CCC=C(C)C [Compound 11] | 1.56 µg/mL (≈ 3.55 µM) | 1.56 µg/mL (≈ 3.55 µM) | 3.12 µg/mL (≈ 7.11 µM) | > 100 µg/mL | 0.39 to 3.12 µg/mL (≈ 0.887 to 7.11 µM) |  | 
3 | C=C[C@](C)(/C=C/c1ccc(OCC(=O)N[C@@H](CCCNC(=N)N)C(=O)N[C@@H](CCCNC(=N)N)C(=O)N[C@@H](CCCNC(=N)N)C(=O)OC)cc1)CCC=C(C)C [Compound 45] | 1.56 µg/mL (≈ 1.96 µM) | 0.78 µg/mL (≈ 0.979 µM) | 0.39 µg/mL (≈ 0.489 µM) | 6.25 µg/mL (≈ 7.84 µM) |  | 0.39 to 3.12 µg/mL (≈ 0.489 to 3.92 µM) | 
4 | C=C[C@@](C)(/C=C/c1ccc(OCCCCNCCCCCCCC)cc1)CCC=C(C)C [Compound 17] | 3.12 µg/mL (≈ 7.11 µM) | 1.56 µg/mL (≈ 3.55 µM) | 6.25 µg/mL (≈ 14.2 µM) | > 100 µg/mL |  |  | 
5 | C=C[C@@](C)(/C=C/c1ccc(OCCCCN(C)CCCNC)cc1)CCC=C(C)C [Compound 24] | 1.56 µg/mL (≈ 3.78 µM) | 0.78 µg/mL (≈ 1.89 µM) | 1.56 µg/mL (≈ 3.78 µM) | 1.56 µg/mL (≈ 3.78 µM) | 0.39 to 3.12 µg/mL (≈ 0.945 to 7.57 µM) |  | 1.56 to 3.12 µg/mL (≈ 3.78 to 7.57 µM)
6 | C=C[C@@](C)(/C=C/c1ccc(OCCCCN2CCN(CCCN(C)C)CC2)cc1)CCC=C(C)C [Compound 23] | 3.12 µg/mL (≈ 6.49 µM) | 0.78 µg/mL (≈ 1.62 µM) | 1.56 µg/mL (≈ 3.24 µM) | 3.12 µg/mL (≈ 6.49 µM) | 0.39 to 3.12 µg/mL (≈ 0.81 to 6.49 µM) |  | 1.56 to 3.12 µg/mL (≈ 3.24 to 6.49 µM)
7 | C=C[C@@](C)(/C=C/c1ccc(OCC(=O)N[C@@H](CCCCN)C(=O)OC)cc1)CCC=C(C)C [Compound 47] | 6.25 µg/mL (≈ 13.7 µM) | 6.25 µg/mL (≈ 13.7 µM) | 6.25 µg/mL (≈ 13.7 µM) | 12.5 µg/mL (≈ 27.4 µM) |  |  | 
8 | C=C[C@@](C)(/C=C/c1ccc(OCCCN(CC)CC)cc1)CCC=C(C)C [Compound 9] | 3.12 µg/mL (≈ 8.46 µM) | 3.12 µg/mL (≈ 8.46 µM) | 3.12 µg/mL (≈ 8.46 µM) | > 100 µg/mL |  | 0.39 to 3.12 µg/mL (≈ 1.06 to 8.46 µM) | 
9 | C=C[C@@](C)(/C=C/c1ccc(OCCCCN2CCCNCCNCCCNCC2)cc1)CCC=C(C)C [Compound 30] | 0.78 µg/mL (≈ 1.53 µM) | 0.78 µg/mL (≈ 1.53 µM) | 0.78 µg/mL (≈ 1.53 µM) | 3.12 µg/mL (≈ 6.12 µM) | 0.39 to 3.12 µg/mL (≈ 0.763 to 6.12 µM) |  | 1.56 to 3.12 µg/mL (≈ 3.05 to 6.12 µM)
10 | C=C[C@](C)(/C=C/c1ccc(OCC(=O)N[C@@H](Cc2c[nH]cn2)C(=O)OC)cc1)CCC=C(C)C [Compound 40] | 6.25 µg/mL (≈ 13.4 µM) | 6.25 µg/mL (≈ 13.4 µM) | 6.25 µg/mL (≈ 13.4 µM) | > 100 µg/mL |  |  | 
11 | C=C[C@](C)(/C=C/c1ccc(OCCCCNCCN(CCN)CCN)cc1)CCC=C(C)C [Compound 29] | 0.78 µg/mL (≈ 1.71 µM) | 0.78 µg/mL (≈ 1.71 µM) | 0.78 µg/mL (≈ 1.71 µM) | 3.12 µg/mL (≈ 6.84 µM) | 0.39 to 3.12 µg/mL (≈ 0.854 to 6.84 µM) |  | 1.56 to 3.12 µg/mL (≈ 3.42 to 6.84 µM)
12 | C=C[C@@](C)(/C=C/c1ccc(OCCCCNCC)cc1)CCC=C(C)C [Compound 14] | 1.56 µg/mL (≈ 4.39 µM) | 0.78 µg/mL (≈ 2.19 µM) | 1.56 µg/mL (≈ 4.39 µM) | 12.5 µg/mL (≈ 35.2 µM) | 0.39 to 3.12 µg/mL (≈ 1.1 to 8.79 µM) |  | 
13 | C=C[C@@](C)(/C=C/c1ccc(OCCCCNCCSC)cc1)CCC=C(C)C [Compound 25] | 1.56 µg/mL (≈ 3.88 µM) | 0.78 µg/mL (≈ 1.94 µM) | 0.78 µg/mL (≈ 1.94 µM) | 50 µg/mL (≈ 124 µM) | 0.39 to 3.12 µg/mL (≈ 0.971 to 7.78 µM) |  | 
14 | C=C[C@@](C)(/C=C\c1ccc(OCC(=O)N[C@@H](CCCNC(=N)N)C(=O)N[C@@H](Cc2c[nH]cn2)C(=O)OC)cc1)CCC=C(C)C [Compound 50] | 6.25 µg/mL (≈ 10.1 µM) | 6.25 µg/mL (≈ 10.1 µM) | 6.25 µg/mL (≈ 10.1 µM) | 12.5 µg/mL (≈ 20.1 µM) |  |  | 
15 | C=C[C@@](C)(/C=C/c1ccc(OCCCCCCCCCCN(CC)CC)cc1)CCC=C(C)C [Compound 12] | 3.12 µg/mL (≈ 6.68 µM) | 3.12 µg/mL (≈ 6.68 µM) | 12.5 µg/mL (≈ 26.7 µM) | > 100 µg/mL | 0.39 to 3.12 µg/mL (≈ 0.834 to 6.68 µM) |  | 
16 | C=C[C@](C)(/C=C/c1ccc(OCC(=O)N[C@@H](CCCNC(=N)N)C(=O)N[C@@H](CCCNC(=N)N)C(=O)N2CCN(c3ccc(N4C[C@H](CNC(C)=O)OC4=O)cc3F)CC2)cc1)CCC=C(C)C [Compound 59] | 0.78 µg/mL (≈ 0.825 µM) | 0.78 µg/mL (≈ 0.825 µM) | 0.78 µg/mL (≈ 0.825 µM) | 1.56 µg/mL (≈ 1.65 µM) | 0.39 to 3.12 µg/mL (≈ 0.413 to 3.31 µM) |  | 1.56 to 3.12 µg/mL (≈ 1.65 to 3.31 µM)
17 | C=C[C@@](C)(/C=C/c1ccc(OCCCN(C)C)cc1)CCC=C(C)C [Compound 8] | 6.25 µg/mL (≈ 18.3 µM) | 6.25 µg/mL (≈ 18.3 µM) | 6.25 µg/mL (≈ 18.3 µM) | > 100 µg/mL |  |  | 
